Type in all cases: functional, cell-based
The subject of assay [1] is MCF7. Nature of the assay: Growth inhibition of human MCF7 cells at 50 uM.
The subject of assay [2] is PC-3. The assay can be described thus: Growth inhibition of human PC3 cells at 500 uM.
In the next assay the test system is HCT-116. The assay can be described thus: Growth inhibition of human HCT116 cells up to 1 mM relative to DMSO-treated control.
The next assay concerns HT-29. The assay can be described thus: Growth inhibition of human HT-29 cells up to 1 mM relative to DMSO-treated control.
Another assay deals with RKO. Nature of the assay: Growth inhibition of human RKO cells up to 1 mM relative to DMSO-treated control.
In a further assay the test system is NCI-H460. Nature of the assay: Growth inhibition of human H460 cells up to 1 mM relative to DMSO-treated control.
For assay [3], the system named is PC-3. The assay can be described thus: Growth inhibition of human PC3 cells up to 1 mM relative to DMSO-treated control.
A further assay deals with DU-145. Nature of the assay: Growth inhibition of human DU145 cells up to 1 mM relative to DMSO-treated control.
The next assay relates to T47D. The assay can be described thus: Growth inhibition of human T47D cells up to 1 mM relative to DMSO-treated control.
The subject of assay [4] is MCF7. Nature of the assay: Growth inhibition of human MCF7 cells up to 1 mM relative to DMSO-treated control.

Activity calls are given as the source filed them. The calls are words filed in the database; no cut-off is given here.

In the case of `NC(=O)c1cccc([C@@H]2O[C@H](CO)[C@@H](O)[C@H]2O)c1`, in the assay with MCF7 [1], the “growth inhibition (GI)” value is “Active”.
With `NC(=O)c1csc([C@@H]2O[C@H](CO)[C@@H](O)[C@H]2O)n1`, in the assay on PC-3 [2], the “growth inhibition (GI)” value is “Active”.
In the case of `NC(=O)c1cccc([C@H]2C[C@H](O)[C@@H](CO)O2)c1` (racemic), the “growth inhibition (GI)” value with HCT-116, in the assay with HT-29, with RKO, in the assay with NCI-H460, in the assay with PC-3 [3] and with DU-145 was “inactive” each time. For the same compound, the “growth inhibition (GI)” value with T47D and in the assay on MCF7 [4] was “inactive” each time.

Values taken from ChEMBL document CHEMBL2057178, “Novel synthetic route to the C-nucleoside, 2-deoxy benzamide riboside” (Bioorg Med Chem Lett, 2012).
